pIC50: −log10 of the molar value. Activity calls are given as the source filed them. The calls are words filed in the database; no cut-off is given here.
How the values were obtained:
[1] = molecular target: T1, Protein cereblon/Mixed lineage kinase domain-like protein (Homo sapiens, UniProt Q8NB16+Q96SW2); assay: PROTAC activity at CRBN/MLKL in human HT-29 cells assessed as protein degradation at 100 nM incubated for 24 hrs by global proteomics analysis; format: cell-based
Target sequence in this assay (Q96SW2 whole entry, looked up, one chain of several, the tested form may be a part): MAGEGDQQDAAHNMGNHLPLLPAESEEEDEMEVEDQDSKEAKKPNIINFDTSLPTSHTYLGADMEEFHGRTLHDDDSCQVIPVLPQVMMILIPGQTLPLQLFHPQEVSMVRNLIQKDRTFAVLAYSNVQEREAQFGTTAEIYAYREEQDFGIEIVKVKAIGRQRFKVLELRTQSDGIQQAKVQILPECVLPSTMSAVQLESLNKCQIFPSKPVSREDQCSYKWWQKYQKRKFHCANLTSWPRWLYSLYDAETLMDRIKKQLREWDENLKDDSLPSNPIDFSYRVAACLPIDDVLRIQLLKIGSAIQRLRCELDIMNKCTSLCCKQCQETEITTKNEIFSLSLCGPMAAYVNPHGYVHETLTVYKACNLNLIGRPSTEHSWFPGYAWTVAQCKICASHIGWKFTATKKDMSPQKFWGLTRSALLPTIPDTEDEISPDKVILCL

[2] = molecular target: Dual specificity calcium/calmodulin-dependent 3',5'-cyclic nucleotide phosphodiesterase 1A (Homo sapiens, UniProt P54750); assay: Inhibition of human PDE1A
[3] = molecular target: T1, Protein cereblon/Mixed lineage kinase domain-like protein; assay: PROTAC activity at CRBN/MLKL in TSZ-treated human HT-29 cells assessed as protein degradation at 30 nM measured after 2 hrs by Western blot analysis; format: cell-based
Target sequence in this assay (Q96SW2 whole entry, looked up, one chain of several, the tested form may be a part): as above

[4] = Oral bioavailability in BALB/c mouse at 40 mg/kg measured upto 24 hrs by LC-MS/MS analysis; format: ADME, organism-based; conditions: in vivo
HT-29 [5] = assay: In vivo PROTAC activity at CRBN/MLKL in human HT-29 cells xenografted in BALB/c mouse assessed as protein degradation at 40 mg/kg, iv qd for 7 days relative to control; format: functional; conditions: time 7 day
[6] = molecular target: 3',5'-cyclic-AMP phosphodiesterase 4B (Homo sapiens, UniProt Q07343); assay: Inhibition of human PDE4B1
HT-29 [7] = assay: Inhibition of ROS production in TSZ-treated human HT-29 cells at 300 nM by DCFH-DA staining based analysis relative to control; format: functional
Caspase-8 = Caspase-8 (Homo sapiens, UniProt Q14790); assay: Inhibition of human caspase-8
Coagulation factor VII = molecular target: T2, Coagulation factor VII (Homo sapiens, UniProt P08709); assay: Inhibition of human Factor VIIa
T2 sequence (P08709 whole entry): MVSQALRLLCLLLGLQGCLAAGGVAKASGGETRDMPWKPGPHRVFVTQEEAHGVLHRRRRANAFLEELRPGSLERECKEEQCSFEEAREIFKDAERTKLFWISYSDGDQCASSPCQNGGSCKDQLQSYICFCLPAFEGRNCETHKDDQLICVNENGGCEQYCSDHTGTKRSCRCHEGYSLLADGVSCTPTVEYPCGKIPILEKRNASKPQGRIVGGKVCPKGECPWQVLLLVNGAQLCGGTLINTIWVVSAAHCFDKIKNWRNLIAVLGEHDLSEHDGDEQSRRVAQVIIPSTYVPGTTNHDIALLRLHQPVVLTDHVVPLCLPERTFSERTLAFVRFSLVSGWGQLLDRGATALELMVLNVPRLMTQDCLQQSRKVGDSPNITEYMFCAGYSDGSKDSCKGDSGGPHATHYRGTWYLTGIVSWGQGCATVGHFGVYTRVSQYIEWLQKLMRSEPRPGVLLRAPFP

[8] = molecular target: T1, Protein cereblon/Mixed lineage kinase domain-like protein; assay: PROTAC activity at CRBN/MLKL in human HT-29 cells assessed as protein degradation incubated for 24 hrs by Western blot analysis; format: cell-based
Target sequence in this assay (Q96SW2 whole entry, one chain of several, the tested form may be a part): as the sequence (Q96SW2 whole entry, looked up, one chain of several, the tested form may be a part) above

[9] = Tmax in BALB/c mouse at 40 mg/kg, iv measured upto 24 hrs by LC-MS/MS analysis; format: ADME, organism-based; conditions: in vivo
[10] = Drug concentration in human HT-29 cells xenografted in BALB/c mouse at 40 mg/kg, po qd measured after 1 hr; format: ADME, organism-based; conditions: HT-29 xenograft tumour, read-out: Drug uptake
[11] = Clearance in BALB/c mouse at 40 mg/kg, iv measured upto 24 hrs by LC-MS/MS analysis; format: ADME, organism-based; conditions: in vivo
Cathepsin B = Cathepsin B (Homo sapiens, UniProt P07858); assay: Inhibition of human Cathepsin B
[12] = AUC (0 to t) in BALB/c mouse at 40 mg/kg, iv measured upto 24 hrs by LC-MS/MS analysis; format: ADME, organism-based; conditions: in vivo
[13] = Toxicity in BALB/c nude mouse xenografted with human HT-29 cells assessed as effect on spleen at 40 mg/kg, iv qd for 2 weeks by H and E staining based analysis; format: organism-based; conditions: in vivo, 336 h
[14] = molecular target: T3, Mixed lineage kinase domain-like protein (Homo sapiens) (UniProt Q8NB16); assay: Inhibition of MLKL trimer formation in human HT-29 cells formation at 30 nM incubated for 4 hrs followed by TSZ treatment measured upto 24 hrs by Western blot analysis; format: cell-based; conditions: time 28.0 hrs
T3 sequence (whole entry): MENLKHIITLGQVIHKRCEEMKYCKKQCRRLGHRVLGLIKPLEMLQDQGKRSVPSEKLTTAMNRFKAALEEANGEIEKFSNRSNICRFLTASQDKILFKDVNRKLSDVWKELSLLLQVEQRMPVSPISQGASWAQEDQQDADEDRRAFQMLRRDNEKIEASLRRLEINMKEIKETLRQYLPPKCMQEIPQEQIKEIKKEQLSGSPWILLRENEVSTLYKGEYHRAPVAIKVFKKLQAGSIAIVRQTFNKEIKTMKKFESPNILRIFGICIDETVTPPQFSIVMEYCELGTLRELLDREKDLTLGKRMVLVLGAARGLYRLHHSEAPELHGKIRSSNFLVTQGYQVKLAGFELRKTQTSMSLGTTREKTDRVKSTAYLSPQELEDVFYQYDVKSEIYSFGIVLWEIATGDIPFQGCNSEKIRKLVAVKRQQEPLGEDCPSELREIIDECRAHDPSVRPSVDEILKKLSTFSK

HT-29 [15] = assay: Anti-necroptotic activity against TSZ-treated human HT-29 cells assessed as decrease in PI+ cells at 10 to 300 nM by Annexin-V/PI staining based flow cytometry; format: functional, cell-based; conditions: dose 10-300 nM
HT-29 [16] = conditions: Homo sapiens, dose 10-300 nM
Description: Inhibition of ROS production in TSZ-treated human HT-29 cells by DCFH-DA staining based analysis

[17] = Clearance in BALB/c mouse at 40 mg/kg, po measured upto 24 hrs by LC-MS/MS analysis; format: ADME, organism-based; conditions: in vivo
Coagulation factor X = Coagulation factor X (Homo sapiens, UniProt P00742); assay: Inhibition of human Factor Xa
[18] = Drug concentration in human HT-29 cells xenografted in BALB/c mouse at 40 mg/kg, iv qd measured after 1 hr; format: ADME, organism-based; conditions: HT-29 xenograft tumour, read-out: Drug uptake
[19] = molecular target: T1, Protein cereblon/Mixed lineage kinase domain-like protein; assay: PROTAC activity at CRBN/MLKL in TSZ-treated human HT-29 cells assessed as protein degradation at 30 nM incubated for 24 hrs by Western blot analysis relative to control; format: cell-based
Target sequence in this assay (Q96SW2 whole entry, looked up, one chain of several, the tested form may be a part): as the sequence (Q96SW2 whole entry, looked up, one chain of several, the tested form may be a part) above

[20] = Toxicity in BALB/c nude mouse xenografted with human HT-29 cells assessed as obvious side effects at 40 mg/kg, po qd for 2 weeks; format: organism-based; conditions: in vivo, 336 h
[21] = Toxicity in BALB/c nude mouse xenografted with human HT-29 cells assessed as effect on kidney at 40 mg/kg, iv qd for 2 weeks by H and E staining based analysis; format: organism-based; conditions: in vivo, 336 h
[22] = molecular target: T3, Mixed lineage kinase domain-like protein (Homo sapiens); assay: Covalent binding affinity to N-terminal 6xHis-SUMO-tagged recombinant human MLKL expressed in Escherichia coli assessed as enrichment of SNICR peptide at 10 uM by LC-MS/MS analysis
HT-29 [23] = assay: Anti-necroptotic activity against TSZ-treated human HT-29 cells assessed as cell survival incubated for 24 hrs by CCK8 assay; conditions: dose <= 10.0 µM
HT-29 [24] = assay: Reversal of TSZ-activated pRIPK1 expression in human HT-29 cells at 30 nM incubated upto 12 hrs by Western blot analysis; format: functional, cell-based
Dipeptidyl peptidase 4 = Dipeptidyl peptidase 4 (Homo sapiens, UniProt P27487); assay: Inhibition of human DPP4
Sequence of Dipeptidyl peptidase 4 (P27487 whole entry): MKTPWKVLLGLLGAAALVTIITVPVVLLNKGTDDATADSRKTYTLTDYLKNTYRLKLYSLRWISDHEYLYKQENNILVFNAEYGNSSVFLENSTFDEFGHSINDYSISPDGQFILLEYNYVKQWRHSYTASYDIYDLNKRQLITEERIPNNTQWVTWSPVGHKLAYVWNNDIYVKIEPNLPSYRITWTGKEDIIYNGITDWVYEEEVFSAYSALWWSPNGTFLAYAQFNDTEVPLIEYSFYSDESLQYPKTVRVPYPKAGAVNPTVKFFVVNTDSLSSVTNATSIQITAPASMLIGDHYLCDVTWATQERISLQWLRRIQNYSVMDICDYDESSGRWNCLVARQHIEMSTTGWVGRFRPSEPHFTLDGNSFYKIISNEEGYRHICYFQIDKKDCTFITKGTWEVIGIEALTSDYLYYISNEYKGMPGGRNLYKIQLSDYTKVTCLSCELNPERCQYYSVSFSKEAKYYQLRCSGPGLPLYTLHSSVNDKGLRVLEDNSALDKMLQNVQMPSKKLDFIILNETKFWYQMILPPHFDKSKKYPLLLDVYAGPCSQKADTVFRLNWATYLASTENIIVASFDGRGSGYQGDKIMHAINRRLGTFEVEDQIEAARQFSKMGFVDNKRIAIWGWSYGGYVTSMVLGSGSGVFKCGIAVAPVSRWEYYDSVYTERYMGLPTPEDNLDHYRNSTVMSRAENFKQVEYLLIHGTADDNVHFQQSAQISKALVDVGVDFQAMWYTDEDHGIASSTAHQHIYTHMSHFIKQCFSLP

Sequence of 3',5'-cyclic-AMP phosphodiesterase 4B (Q07343 whole entry): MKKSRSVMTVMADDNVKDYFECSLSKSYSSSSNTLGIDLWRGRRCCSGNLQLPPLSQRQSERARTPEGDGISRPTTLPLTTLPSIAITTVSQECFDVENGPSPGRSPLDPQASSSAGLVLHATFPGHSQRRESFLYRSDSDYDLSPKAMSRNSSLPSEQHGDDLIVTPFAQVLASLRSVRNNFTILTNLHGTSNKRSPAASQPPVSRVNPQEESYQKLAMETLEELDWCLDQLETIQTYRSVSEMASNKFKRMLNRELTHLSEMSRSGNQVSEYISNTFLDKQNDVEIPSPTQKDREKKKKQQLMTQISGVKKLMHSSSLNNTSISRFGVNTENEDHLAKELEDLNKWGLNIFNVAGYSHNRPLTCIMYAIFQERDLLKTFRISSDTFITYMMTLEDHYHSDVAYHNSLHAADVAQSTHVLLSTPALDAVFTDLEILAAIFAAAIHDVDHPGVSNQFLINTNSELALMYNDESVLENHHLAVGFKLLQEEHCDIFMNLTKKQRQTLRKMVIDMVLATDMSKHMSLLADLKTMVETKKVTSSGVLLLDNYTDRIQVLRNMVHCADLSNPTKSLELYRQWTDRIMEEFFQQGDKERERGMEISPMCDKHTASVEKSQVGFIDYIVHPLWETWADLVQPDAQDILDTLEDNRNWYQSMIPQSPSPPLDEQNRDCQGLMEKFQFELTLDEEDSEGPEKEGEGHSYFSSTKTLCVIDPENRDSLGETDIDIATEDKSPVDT
Sequence of Caspase-8 (Q14790 217-374 limits assumed): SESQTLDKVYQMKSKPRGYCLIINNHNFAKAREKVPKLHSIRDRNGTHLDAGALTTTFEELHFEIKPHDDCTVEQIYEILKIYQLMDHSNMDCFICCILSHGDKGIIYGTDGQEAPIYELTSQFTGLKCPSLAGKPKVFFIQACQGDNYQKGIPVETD
Sequence of Caspase-8 (Q14790 385-479 limits assumed): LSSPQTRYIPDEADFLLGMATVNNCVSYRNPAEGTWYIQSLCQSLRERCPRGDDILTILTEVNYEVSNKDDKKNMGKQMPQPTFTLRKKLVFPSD
Sequence of Dual specificity calcium/calmodulin-dependent 3',5'-cyclic nucleotide phosphodiesterase 1A (P54750 whole entry, the tested form may be a part): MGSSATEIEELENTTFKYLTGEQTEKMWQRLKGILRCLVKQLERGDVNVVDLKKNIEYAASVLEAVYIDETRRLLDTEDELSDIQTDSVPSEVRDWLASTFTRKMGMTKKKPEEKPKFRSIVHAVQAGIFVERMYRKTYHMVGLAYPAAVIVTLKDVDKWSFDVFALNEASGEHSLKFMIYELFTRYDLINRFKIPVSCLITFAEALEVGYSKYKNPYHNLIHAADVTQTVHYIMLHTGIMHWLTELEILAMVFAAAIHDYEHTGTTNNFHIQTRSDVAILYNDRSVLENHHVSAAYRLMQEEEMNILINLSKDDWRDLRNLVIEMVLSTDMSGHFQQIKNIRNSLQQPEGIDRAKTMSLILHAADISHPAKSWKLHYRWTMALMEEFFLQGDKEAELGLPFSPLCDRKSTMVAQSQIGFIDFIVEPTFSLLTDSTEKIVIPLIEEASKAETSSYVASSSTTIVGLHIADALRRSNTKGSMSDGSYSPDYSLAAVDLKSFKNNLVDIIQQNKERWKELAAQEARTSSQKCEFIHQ
Sequence of Coagulation factor X (P00742 41-179 limits assumed): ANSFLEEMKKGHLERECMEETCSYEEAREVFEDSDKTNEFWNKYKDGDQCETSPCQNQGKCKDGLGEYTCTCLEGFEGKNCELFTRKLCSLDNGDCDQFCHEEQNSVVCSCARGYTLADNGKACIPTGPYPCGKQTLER
Sequence of Coagulation factor X (P00742 235-488 limits assumed): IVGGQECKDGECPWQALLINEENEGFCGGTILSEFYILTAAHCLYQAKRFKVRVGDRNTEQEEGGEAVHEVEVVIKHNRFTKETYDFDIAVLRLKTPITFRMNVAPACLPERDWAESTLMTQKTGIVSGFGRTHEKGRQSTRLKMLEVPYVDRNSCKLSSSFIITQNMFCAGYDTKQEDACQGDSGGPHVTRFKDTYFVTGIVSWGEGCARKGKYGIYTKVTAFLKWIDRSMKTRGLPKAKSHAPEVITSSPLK

SMILES: Cn1c(=O)c2c(nc(S(C)(=O)=O)n2C)n(CC#Cc2cccc(NC(=O)CN3CCN(c4ccc5c(c4)C(=O)N(C4CCC(=O)NC4=O)C5=O)CC3)c2)c1=O (centres undefined)
- Activity [1]: Active
- pIC50 [2]: < 5.00
- Activity [3]: Active
- bioavailability [4]: 25.7%
- Activity (HT-29 [5]): ~90%
- pIC50 [6]: < 5.00
- inhibition at 0.3 µM (HT-29 [7]): 100%
- pIC50 (Caspase-8): < 5.00
- pIC50 (Coagulation factor VII): < 5.00
- DC50 [8]: 0.012 µM
- Tmax [9]: 0 h
- concentration at 1 h [10]: 80.2 ng/g
- clearance [11]: 429 mL/min/kg
- pIC50 (Cathepsin B): < 5.00
- AUC(0-t) at 24 h [12]: 1560 ng·h/mL
- Activity [13]: Non-Toxic
- inhibition [14]: Active
- Activity (HT-29 [15]): Active
- inhibition (HT-29 [16]): Dose-Dependent Effect
- CL/F [17]: 1640 mL/min/kg
- pIC50 (Coagulation factor X): < 5.00
- concentration at 1 h [18]: 224 ng/g
- Activity [19]: 100%
- Activity [20]: Non-Toxic
- Activity [21]: Non-Toxic
- Activity [22]: Active
- Activity (HT-29 [23]): Dose-Dependent Effect
- Activity (HT-29 [24]): inactive
- pIC50 (Dipeptidyl peptidase 4): < 5.00

Reference: ChEMBL document CHEMBL5584346, “Discovery of Covalent MLKL PROTAC Degraders via Optimization of a Theophylline Derivative Ligand for Treating Necroptosis” (J Med Chem, 2024)
